Key:
[1] = system: differentiated monocytic cell line THP-1; assay: In vitro phagocytic assay: ingestion of chilled or room temperature human platelets by THP-1 cells; type: cell-based; conditions: for inhibitory effect on chilled platelet phagocytosis (in words): phagocytes incubated in monosaccharide solutions at various concentrations; for inhibitory effect on RT platelet phagocytosis (in words): room temperature platelets
Experimental: CR3 expression was monitored by flow cytometry using a PE-conjugated anti-human CD11b/Mac-1 mAb. Undifferentiated or differentiated THP-1 cells (2×10^6/ml) were plated onto 24-well plates and allowed to adhere for 45 minutes at 37° C. The adherent undifferentiated or differentiated macrophages were activated by the addition of 15 ng/ml PMA for 15 min. CM-range-labeled, chilled or room temperature platelets (10^7/well), previously subjected to different treatments were added to the undifferentiated or differentiated phagocytes in Ca^2+- and Mg^2+-containing HBSS and incubated for 30 min at 37° C. Following the incubation period, the phagocyte monolayer was washed with HBSS for 3 times, and adherent platelets were removed by treatment with 0.05% trypsin/0.53 mM EDTA in HBSS at 37° C. for 5 min followed by 5 mM EDTA at 4° C. to detach the macrophages for flow cytometric analysis of adhesion or ingestion of platelets (Brown et al., 2000). […] CM-Orange-labeled platelets incubated with macrophages were resolved from the phagocytes according to their forward and side scatter properties. The macrophages were gated, 10,000 events acquired for each sample, and data analyzed with CELLQuest software (Becton Dickenson).
To analyze the effects of monosaccharides on platelet phagocytosis, phagocytes (differentiated monocytic cell line THP-1) were incubated in monosaccharide solutions at various concentrations, and the chilled or room temperature platelets were added. Values in the Figures are means±SD of 3-5 experiments comparing percentages of orange-positive monocytes containing ingested platelets incubated with RT or chilled platelets).

[2] = system: chilled human platelets; assay: FITC-WGA / S-WGA lectin binding to platelets by flow cytometry; type: cell-based; conditions: chilled or room temperature human platelets; control nucleotides
Experimental: We then investigated whether wheat germ agglutinin (WGA), a lectin with specificity towards the terminal sugar (GlcNAc), binds more effectively to chilled platelets than to room temperature platelets. Washed, chilled or room temperature platelets were incubated with 2 μg/ml of FITC coupled WGA or FITC coupled succinyl-WGA for 30 min at room temperature and analyzed by flow cytometry.
To analyze whether removal of GlcNAc residues reduces the binding of WGA to the platelet surface, chilled and room temperature washed human platelets were treated with 100 U/ml β-Hex for 30 min at 37° C.

[3] = system: human platelets; assay: RCA I lectin binding to platelets by flow cytometry; type: cell-based; conditions: chilled or room temperature human platelets; control nucleotides
[4] = system: human platelets; assay: Immunolabeling and flow cytometry of chilled versus room temperature platelets (human); type: cell-based; conditions: mean±SD, n=3−4
Experimental: (§1) Washed murine or human platelets (2×10^6) were analyzed for surface expression of CD62P, CD61, or surface bound IgM and IgG after chilling or room temperature storage by staining with fluorophore-conjugated Abs (5 μg/ml) for 10 min at 37° C. Phosphatidylserine exposure by chilled or room temperature platelets was determined by resuspending 5 μl of platelets in 400 μl of HBSS containing 10 mM Ca^2+ with 10 μg/ml of FITC-conjugated annexin-V. As a positive control for PS exposure, platelet suspensions were stimulated with 1 μM A23187. Fibrinogen binding was determined by the addition of Oregon Green-fibrinogen for 20 min at room temperature. All platelet samples were analyzed immediately by flow cytometry. Platelets were gated by forward and side scatter characteristics.
(§2) The binding of fluorescently labeled antibodies or ligands against various receptors on chilled-rewarmed or room temperature human and murine platelets was measured by flow cytometry. The data are expressed as the ratio between the mean fluorophore bound to the surface of chilled versus room temperature platelets (mean±SD, n=3−4).

[5] = system: Murine platelets; assay: Immunolabeling and flow cytometry of chilled versus room temperature platelets (murine); type: cell-based; conditions: mean±SD, n=3−4
Experimental: as §1, §2

[6] = mice lacking 2,3Sialyltransferase IV; cited from earlier work
[7] = system: platelet membrane glycoproteins; assay: Incorporation of 14C-labeled sugars into endogenous platelet glycoproteins (SDS-PAGE, autoradiography); type: biochemical, human; conditions: intact non-lysed platelets
Experimental: Transfer of sialic acids to endogenous glycoproteins by platelet sialyltransferase activity was tested in two ways. […] Intact platelets suspended in buffer (140 mM NaCl, 3 mM KCl, 0.5 mM MgCl2, 5 mM NaHCO3, 10 mM Hepes, pH 7.4) were used to assess the capacity of surface exposed sialyltransferase activity to transfer to platelet membrane glycoproteins. […] Thus, it was possible to use three different glycan modification strategies: addition of 1) UDP-[^14C]-galactose, 2) UDP-[^14C]-galactose and CMP-[^14C]-sialic acid, and 3) CMP-[^14C]-sialic acid alone. The incorporation of radioactive sugar nucleotides were monitored by SDS-PAGE chromatography followed by autoradiography.
The incorporation of radioactive carbohydrate sialic acid in endogenous platelet acceptor proteins was evaluated by incubating either detergent lysed platelets or non-lysed platelets with CMP-[^14C]-sialic. The incorporation ^14C-sialic acid was monitored by SDS-PAGE chromatography of the glycosylation mixture followed by autoradiography. Briefly, human apheresis platelets were washed and resuspended in resuspension buffer (40 mM NaCl, 3 mM KCl, 0.5 mM MgCl2, 5 mM NaHCO3, 10 mM Hepes, pH 7.4) and split in two fractions. One fraction was incubated with addition of CMP-[^14C]-sialic acid at 37° C. for 60 minutes. […]

## O=C[C@H](O)[C@@H](O)[C@@H](O)[C@H](O)CO [D-(+)-galactose]
[1]; chilled platelets, monosaccharide 100 mM
  % inhibition phagocytosis: did not significantly inhibit

## O=C[C@@H](O)[C@@H](O)[C@H](O)[C@H](O)CO [D-(+)-mannose]
[1]; chilled platelets
  inhibitory effect on chilled platelet phagocytosis (in words): no inhibitory effect
[1]
  inhibitory effect on RT platelet phagocytosis (in words): no inhibitory effect

## CC(=O)N[C@H]1C(O)O[C@H](CO)[C@@H](O)[C@@H]1O (stereo partly drawn) [GlcNac, N-acetyl-D-glucosamine]
[1]; 25 to 200 mM
  inhibition of chilled platelet phagocytosis (in words): significantly inhibited

## CO[C@H]1O[C@H](CO)[C@@H](O)[C@H](O)[C@H]1O [Methyl-α-D-glucopyranoside]
[1]; chilled platelets
  inhibitory effect on chilled platelet phagocytosis (in words): did not have an inhibitory effect

## CO[C@H]1O[C@H](CO)[C@@H](O)[C@H](O)[C@@H]1O [Methyl-α-D-mannopyranoside]
[1]; chilled platelets
  inhibitory effect on chilled platelet phagocytosis (in words): no inhibitory effect
[1]
  inhibitory effect on RT platelet phagocytosis (in words): no inhibitory effect

## COC1OC(CO)C(O)C(O)C1O [Methyl-β-D-gludopyranoside]
[1]; chilled platelets
  inhibitory effect on chilled platelet phagocytosis (in words): inhibited phagocytosis in a dose-dependent manner

## CO[C@@H]1O[C@H](CO)[C@@H](O)[C@H](O)[C@@H]1O [Methyl-β-D-mannopyranoside]
[1]; chilled platelets
  inhibitory effect on chilled platelet phagocytosis (in words): no inhibitory effect
[1]
  inhibitory effect on RT platelet phagocytosis (in words): no inhibitory effect

## O=c1ccn([C@@H]2O[C@H](COP(=O)(O)OP(=O)(O)O)[C@@H](O)[C@H]2O)c(=O)[nH]1 [UDP]
[2]
  effect on S-WGA binding: no effect
[3]
  effect on RCA I binding: no effect

## CC(=O)N[C@@H]1[C@@H](O)[C@H](O)[C@@H](CO)O[C@H]1O [β-GlcNac]
[1]; 10 μM
  inhibition of the phagocytosis of chilled platelets: 80%
[1]; chilled platelets
  inhibitory effect on chilled platelet phagocytosis (in words): strongly inhibited

## annexin V: FITC-conjugated annexin-V, ligand for phosphatidylserine exposure
[4]
  Binding ratio 4° C.:22° C.: 0.95 ± 0.09
[5]
  Binding ratio 4° C.:22° C.: 1.04 ± 0.02

## asialofetuin
[6]
  platelet count: corrects the platelet count

## cytidine monophospho-N-acetylneuraminic acid [CMP-sialic acid]
[7]
  incorporation of radioactive sugar into platelet membrane glycoproteins: high level of incorporation

## fibrinogen
[4]
  Binding ratio 4° C.:22° C.: 1.05 ± 0.10
[5]
  Binding ratio 4° C.:22° C.: 1.06 ± 0.06

— US8221745B2 (Velico Medical, Inc., priority 2004, dated 2012)
